# Results taken from patent publication US10765729B2, “Tumor antigen peptide” (Sapporo Medical University, priority 2014, dated 2020).
# Values joined by “and” are separate entries in the source; they are usually repeats but may differ in a detail not shown here. Identical values can stand only once. Where no end group is shown, it is not given here.
# Key:
# [1] = tested on: peripheral blood mononuclear cells derived from HLA-A*02:01-positive healthy individuals; test: CTL inducibility using human peripheral blood mononuclear cells, IFNγ ELISPOT; assay type: cell-based; conditions: peptide 20 μg/mL, IL-2 100 U/mL, about 2 weeks, FIGS. 39-43
# Method: (§1) Subsequently, approximately 1×10^5 cells were plated in each well of a 96-well U bottom plate, and cultured at 37° C. under 5% CO2. At this time, human IL-2 and peptide were added at 100 U/mL and 20 μg/mL, respectively. The medium was exchanged every 3 or 4 days and an IFNγ ELISPOT assay was carried out after about 2 weeks. On the day before the assay, ELISPOT plates were treated with anti-IFNγ antibody, and on the day of assay, they were blocked with RPMI1640 medium containing 10% fetal calf serum at room temperature for about 2 hours. The human peripheral blood mononuclear cells in the culture were washed with an AIM-V medium containing 10% human-derived serum and plated in each well of the blocked ELISPOT plate. After culturing at 37° C. under 5% CO2 for 16 to 18 hours, the supernatant was removed and the ELISPOT plates were subjected to color development according to the attached protocol. The number of colored spots was measured with an ELISPOT analyzer manufactured by Cellular Technology Limited. […] In addition, black bars indicate the number of spots detected under peptide stimulation conditions, and white bars indicate the number of spots (controls) detected under no peptide pulse conditions.
# T2-A24 cells = test: Cytotoxicity test (LDH release) of CTLs toward peptide-pulsed T2-A24 cells; assay type: cell-based, human; conditions: peptide pulse 20 μg/mL; E/T ratio 1, 3, 9; CTL induced by IV9; FIG. 10
# Method: (§2) T2-A24 cells, SW480-SP, SW480-MP, and K562 HLA-class I-deficient leukemia cells (obtained from ATCC) were suspended in 10% FBS-supplemented RPMI at a cell concentration of 1×10^6 cells/mL. Washing was carried out three times with 10 mL of 10% FBS-supplemented RPMI.
# (§3) T2-A24 cells were pulsed with IV9 peptide and HIV584-594 peptide as a positive control for T2-A24 cell binding, at a concentration of 20 μg/mL at room temperature for 1 hour. As a negative control, a group without peptide pulses was used. With regard to experimental group of T2-A24 cells, three groups were defined: [1] no peptide pulse, [2] HIV584-594 peptide pulse, and [3] IV9 peptide pulse. In addition, K562 was pulsed with IV9 peptide under the same conditions. Both SW480-SP and SW480-MP groups were used without peptide pulses. After the peptide pulse, the cells were washed twice with PBS. The cells of each group were plated on each well at 1×10^5 cells/100 μL.
# (§4) Respective numbers of effector cells (CTLs) were plated on each well so that the effector/target ratio (E/T ratio) became 1, 3, and 9. Effector cells were plated as a spontaneous release well. To the maximum release well, 4% of NP-40-added PBS was added to the target cells so that the final concentration became 2%. […] After 10 minutes, fluorescence intensity of each well was measured by Terra Scan. Cytotoxic activity was calculated using the equation below. […]
# SW480-MP = test: Cytotoxicity test (LDH release) of CTLs toward SW480-MP without peptide pulse; assay type: cell-based, human; conditions: CTL induced by IV9, FIG. 10
# Method: as §2, §3, §4
# HLA-A*24:02 = HLA-A*24:02 (Homo sapiens, UniProt P04439, D101N/D140Y/D185E/E176V/E190D/F33S/G103R/G107R/I119L/I121M/I306V/K335N/L105A/L180Q/L300P/N151K/N90K/Q86E/Q94H/R106L/R138H/R89G/T104I/T345S/V100E/W191G/Y123F); assay type: binding
# HLA-A*02:01 = target: T1, HLA-A*02:01 (Homo sapiens, UniProt P04439, D140Y/D185E/D98H/E176V/E277Q/G131W/G231S/I119V/I121R/I166T/I218V/L300P/L318F/N151K/N90K/P208A/P217A/Q86G/Q94H/R138H/R169H/T345S); assay type: binding
# T1 construct: T2 cells can usually only express a low level of empty MHC class I molecules on the cell surface; endogenous in cells; host or cells: T2-A24 cells (human lymphoblastoid T2 cells)
# [2] = tested on: human colon cancer cell line (SW480); test: Detection of SP fraction by Hoechst 33342/PI flow cytometry; assay type: cell-based; conditions: verapamil final concentration 75 μM; Hoechst 33342 5.0 μM; FIG. 1
# Method: 5% fetal calf serum (FCS (HyClone Laboratories))-supplemented DMEM (Sigma-Aldrich) medium was prepared as a medium and warmed at 37° C. Verapamil (Sigma-Aldrich) was adjusted to 50 mM and diluted to 5 mM using the 5% FCS-supplemented DMEM medium. Hoechst 33342 (Lonza) was adjusted to 250 μg/mL using the 5% FCS-supplemented DMEM medium. DNase I (Qiagen) was adjusted to 1 mg/mL using DDW and sterilized by filtration using a 0.2 μm filter.
# A human colon cancer cell line (SW480 (ATCC)) was suspended in 4 mL of the 5% FCS-supplemented DMEM medium, and the number of cells was counted. Furthermore, the 5% FCS-supplemented DMEM medium was added so as to adjust the cell concentration to 10×10^6 cells/mL, thus giving a sample. Using part of the sample, dispensing was carried out; verapamil was not added to a main sample (verapamil(−) sample), and verapamil was added to a secondary sample so as to give a final concentration of 75 μM (verapamil(+) sample). Subsequently, the Hoechst 33342 solution was added to the verapamil(+) sample and the verapamil(−) sample so as to give a Hoechst 33342 final concentration of 5.0 μM. […]
# First, cells in the verapamil(−) sample were analyzed, and cells in a cell group (side population (SP)) having low emission intensity compared with a main cell group (main population (MP)) were detected (FIG. 1).
# [3] = tested on: peripheral blood mononuclear cells derived from HLA-A*24:02-positive healthy individuals; test: CTL inducibility using human peripheral blood mononuclear cells, IFNγ ELISPOT; assay type: cell-based; conditions: peptide 20 μg/mL, IL-2 100 U/mL, about 2 weeks, FIGS. 44, 45
# Method: as §1
compound,measurement,setting,value
9 (CYSLSGHTAL) [compound 9],induction of peptide-specific CTLs from PBMC,[1],able to induce peptide-specific CTLs
IYPPQFHKV [SEQ ID No. 3],cytotoxic activity of CTLs toward peptide-pulsed T2-A24 cells,T2-A24 cells,high cytotoxic activity
same,cytotoxic activity of CTLs toward SW480-MP,SW480-MP,only a similar cytotoxic activity as [1] no peptide pulse group and [2] HIV peptide pulse group
4 (HLSVLFGHV) [compound 4],induction of peptide-specific CTLs from PBMC,[1],able to induce peptide-specific CTLs
17 (SILCAKQLV) [compound 17],MFI HLA-A24,HLA-A*24:02,1.3
34 (FEVEDENMVL) [compound 34],MFI HLA-A24,HLA-A*24:02,1.4
40 (QYVLKVTSV) [compound 40],MFI HLA-A24,HLA-A*24:02,1.3
"EADPTGHSY [HLA-A*02:01 Negative control, MAGE-1161-169 peptide as an HLA-A02-negative control, reference compound]",HLA-A*02:01 Negative control (MFI),HLA-A*02:01,1.0
41 (LLLNHGAARI) [compound 41],MFI HLA-A02,HLA-A*02:01,1.3
28 (RIYPPQFHKV) [compound 28],MFI HLA-A02,HLA-A*02:01,1.4
"RYLRDQQLL [HLA-A*24:02 Positive control, HIV584-592 peptide as an HLA-A24-positive control, reference compound]",HLA-A*24:02 Positive control (MFI),HLA-A*24:02,2.6 and 3.3 and 2.8
"COc1ccc(CCN(C)CCCC(C#N)(c2ccc(OC)c(OC)c2)C(C)C)cc1OC (centres unmarked) [verapamil, Verapamil]",SP cells in flow cytometry,[2],SP cells disappeared
5 (SVLFGHVECL) [compound 5],induction of peptide-specific CTLs from PBMC,[1],able to induce peptide-specific CTLs
same,induction of peptide-specific CTLs from PBMC,[3],has CTL inducibility in both HLA-A02 type and HLA-A24 type subjects
"RGYVYQGL [HLA-A*24:02 Negative control, reference compound]",HLA-A*24:02 Negative control (MFI),HLA-A*24:02,1.0
20 (HVLMHMMLEA) [compound 20],MFI HLA-A24,HLA-A*24:02,1.3
23 (YLLLEPEGII) [compound 23],MFI HLA-A24,HLA-A*24:02,1.4
6 (KILCDRGAKL) [compound 6],induction of peptide-specific CTLs from PBMC,[1],able to induce peptide-specific CTLs
8 (HFGLSELVAFYV) [compound 8],induction of peptide-specific CTLs from PBMC,[1],able to induce peptide-specific CTLs
same,induction of peptide-specific CTLs from PBMC,[3],has CTL inducibility in both HLA-A02 type and HLA-A24 type subjects
